The source made the active and inactive calls.
Columns and labels:
[1] = biological target: Fructose-bisphosphate aldolase (Mycobacterium tuberculosis, UniProt P9WQA3); test: Fluorescence-based biochemical high throughput dose response assay for inhibitors of the fructose-bisphosphate aldolase (FBA) of M. tuberculosis.; format: functional
[2] = microbe, parasite or virus in culture; format: functional; details: Mycobacterium tuberculosis
[3] = test system: INS1; test: INS-1E survival protection against cytokine death – cell-based, luminescence, retest, dose response (AID 449756); format: functional; details: Rattus norvegicus;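 further: cell death triggered by IL-1 beta plus TNF-alpha plus IFN-gamma mixture; protective hits raise ATP signal compared with cytokine alone wells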
[4] = reduced cellular PGC1a acetyl-lysine signal – cell-based, cherry-picked samples, dose response (AID 720514); format: functional;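 further: potency may reflect raised or lowered acetylation signal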
[5] = toxicity toward HepG2 liver cells – cell-based, plate reader, cherry-pick, antagonist series, cytotoxicity control, dose response (AID 743416); format: functional
[6] = blockers of bursicon-stimulated LGR2 cAMP reporter – cell-based, HEK293, CRE-luciferase reporter, cherry pick, set 2, dose response (AID 743343); format: functional;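 further: transfected cells were stimulated with diluted bursicon conditioned medium after compound addition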
[7] = blockade of melanocortin 4 receptor signaling – cell-based, plate reader, cherry pick, counter-screen for LGR2 antagonist project, dose response (AID 743444); format: functional;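 further: transfected HEK 293 cells stimulated with alpha-MSH peptide; potency of inhibitors of the alpha-MSH evoked signal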
[8] = viability loss in HEK293 cells – cell-based, plate reader, cherry-picked samples, cytotoxicity control, dose response (AID 743446); format: functional
[9] = viability loss in THP-1 monocytes – THP-1 cells, cytotoxicity control for Vif-APOBEC3G degradation inhibitor project, dose response (AID 1117359); format: functional; details: THP-1
[10] = test system: HEK293; test: cells; details: Homo sapiens
[11] = test system: HEK293; test: cells; details: Homo sapiens; remark: listed apart in the source
[12] = biological target: T1, Estrogen receptor beta (Homo sapiens, UniProt Q92731);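 further: recombinant ER-beta bound to coactivator SRC1 peptide in presence of estradiol agonist; inhibitors block coactivator peptide binding and lower the FRET signal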
[13] = biological target: T1, Estrogen receptor beta; test: blockers of SRC-3 recruitment to ERβ – biochemical, ELISA, streptavidin-HRP readout, orthogonal assay, confirmation (AID 1060)
[14] = viability loss in HepG2 hepatoma cells – cell-based, ATP luminescence, cherry-pick, activator set 2, cytotoxicity control, dose response (AID 1053143); format: functional
[15] = Luminescence Cell-Based Dose Response HTS to Identify Activators of Luciferase Translation or Activity in H4 […] Cells. [Related pubchem assays: 1829 (Project Summary), 1814 (Primary HTS)]; format: functional
[16] = test system: H4; test: Luminescence Cell-Based Dose Response HTS to Identify Activators of 5'UTR Stem-Loop Driven Prion Protein mRNA Translation in H4 Neuroglioblastoma Cells. [Related pubchem assays: 1829 (Project Summary), 1814 (Primary HTS)]; format: functional; details: Homo sapiens
[17] = Trypanosoma cruzi growth suppression in host cells – NIH3T3 host cells, beta-gal luminescence, confirmation (AID 2044); format: functional, cell-based;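 further: intracellular parasites grown in NIH/3T3 mouse fibroblasts as host cells; luminescent beta-galactosidase reporter signal from transgenic T. cruzi replicating inside host cells; inhibitors lower the luminescence signal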
[18] = NIH3T3 cell viability loss – ATP luminescence, mouse fibroblasts, counter-screen, dose response (AID 2010); format: functional, cell-based;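 further: cells exposed to compound for about 90 hours before reading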
[19] = biological target: Heat shock protein HSP 90-alpha (Homo sapiens, UniProt P07900); test: Luminescence-based dose response biochemical high throughput screening assay for inhibitors of the Heat Shock Protein 90 (HSP90). [Related pubchem assays: 1831 (Summary AID.), 1846 (Confirmation screen.), 1789 (Primary screen.)]
[20] = test system: A-375; test: MITF: Counter assay: A375 proliferation Measured in Cell-Based System Using Plate Reader - 2084-03_Inhibitor_Dose_DryPowder_Activity. [Related pubchem assays (depositor defined):AID488944]; format: functional; details: Homo sapiens
[21] = test system: HEK293; test: viability loss in HEK293T cells – cell-based, ATP luminescence, cherry-pick samples, cytotoxicity control, dose response (AID 687005); format: functional; details: Homo sapiens;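 further: cells exposed to compound for 48 hours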
[22] = HEK293 Cytotoxicity Assay Measured in Cell-Based System Using Plate Reader - 7071-01_Inhibitor_Dose_CherryPick_Activity_Set2.; format: functional

T1 sequence (Q92731 whole entry): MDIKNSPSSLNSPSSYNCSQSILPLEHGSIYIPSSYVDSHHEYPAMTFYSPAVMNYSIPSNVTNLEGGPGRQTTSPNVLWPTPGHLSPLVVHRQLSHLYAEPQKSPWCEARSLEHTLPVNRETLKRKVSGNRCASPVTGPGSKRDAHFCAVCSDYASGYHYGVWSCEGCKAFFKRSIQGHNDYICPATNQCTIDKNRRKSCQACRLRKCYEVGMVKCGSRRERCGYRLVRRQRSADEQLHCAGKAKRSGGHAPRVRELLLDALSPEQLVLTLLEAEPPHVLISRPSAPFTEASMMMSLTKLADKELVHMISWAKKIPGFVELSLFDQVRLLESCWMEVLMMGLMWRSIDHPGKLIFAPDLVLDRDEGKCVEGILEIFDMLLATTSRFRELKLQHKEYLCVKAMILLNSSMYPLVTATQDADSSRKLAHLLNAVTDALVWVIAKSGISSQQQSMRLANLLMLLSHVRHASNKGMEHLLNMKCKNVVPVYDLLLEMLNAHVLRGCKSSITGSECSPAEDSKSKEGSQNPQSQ
Sequence of Fructose-bisphosphate aldolase (P9WQA3 whole entry): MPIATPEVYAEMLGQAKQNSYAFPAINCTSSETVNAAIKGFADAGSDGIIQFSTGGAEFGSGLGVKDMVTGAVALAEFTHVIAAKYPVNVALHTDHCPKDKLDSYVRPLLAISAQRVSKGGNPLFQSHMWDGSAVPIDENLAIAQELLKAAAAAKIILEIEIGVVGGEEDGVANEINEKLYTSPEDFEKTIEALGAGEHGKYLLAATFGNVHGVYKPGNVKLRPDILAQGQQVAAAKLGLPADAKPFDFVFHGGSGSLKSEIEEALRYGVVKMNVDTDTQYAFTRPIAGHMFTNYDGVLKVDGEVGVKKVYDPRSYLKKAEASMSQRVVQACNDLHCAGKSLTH

CCC(=O)Nc1ccc2c(c1)C(=O)N(C)C2=O
IC50 [1]: 4.38 µM (active)

O=C(Cn1ncc(Cl)c(Cl)c1=O)c1ccc2c(c1)OCCO2
CC50 [2]: 13.8 µM (active)
AC50 [3]: > 120 µM (inactive)
AC50 [4]: 15.4 µM (active)
AC50 [5]: 21.3 µM (active)
AC50 [6]: 28.4 µM (active)
AC50 [7]: 36.5 µM (active)
AC50 [8]: 17 µM (active)
CC50 [9]: 9.67 µM (active)
EC50 [10]: > 59.5 µM (inactive)
EC50 [11]: > 59.5 µM (inactive)

Cc1ccc2c(c1)CCCN2C(=O)c1cc(C)c(C)s1
CC50 [9]: > 40 µM (active)

CC12CCCCC1(O)[N+](=O)C1=C(CCCC1)N2[O-] (centres undefined)
IC50 [12]: 10.9 µM (active)
IC50 [13]: 2.85 µM (not active)

Cc1ncsc1C(=O)Nc1nc2c(s1)CC(C)CC2 (centres undefined)
AC50 [14]: > 52 µM (inactive)

CCOC(=O)C1CCN(c2ccc(-c3cccs3)nn2)CC1
EC50 [15]: 0.391 µM (active)
EC50 [16]: 96.1 µM (active)
AC50 [14]: 26 µM (active)

Cc1cc(C)c2nc(N3CCC(C(=O)NCCCN4CC(C)CC(C)C4)CC3)sc2c1 (centres undefined)
EC50 [17]: 1.22 µM (active)
EC50 [18]: > 60 µM (not active)
IC50 [19]: 8.62 µM (active)
AC50 [20]: 21.5 µM (active)

COc1ccccc1CNC(=O)C[C@@H]1CC[C@@H]2[C@H](COc3ccc(NC(C)=O)cc3C(=O)N2C)O1
AC50 [21]: 37.8 µM (active)
AC50 [22]: 37.8 µM (active)

From ChEMBL document CHEMBL1201862, “PubChem BioAssay data set” (2004)
